Laboratory results from patent US6472389B1, “Pyrrolo[1,2-b] pyridazine derivatives having sPLA2 inhibitory effect” (Shionogi & Co., Ltd., priority 1998, dated 2002).

Assays:
[1] = target: T1, recombinant human secretory phospholipase A2 (Homo sapiens, UniProt P14555); experiment: Inhibition test of human secretory phospholipase A2 (chromogenic assay, 96 well microtiterplate); type: biochemical; details: sPLA2 50 ng/well, 40° C., 30 minutes, OD 405 nm, substrate 1,2-bis(heptanoylthio)-1,2-dideoxy-sn-glycero-3-phospholylcholine
T1 sequence (P14555 21-144): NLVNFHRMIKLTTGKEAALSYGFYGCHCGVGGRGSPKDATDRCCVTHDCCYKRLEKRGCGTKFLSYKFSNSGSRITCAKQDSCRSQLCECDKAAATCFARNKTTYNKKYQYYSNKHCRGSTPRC
Excerpt: Inhibition Test of Human Secretory Phospholipase A2
In order to identify and evaluate an inhibitor of recombinant human secretory phospholipase A2, the following chromogenic assay is utilized. The assay herein has been applied for high volume screening wherein 96 well microtiterplate is used. A general explanation for such assay is described in “Analysis of Human Synovial Fluid Phospholipase A2 on Short Chain Phosphatidylcholine-Mixed Micelles: Development of a Spectrophotometric Assay Suitable for a Micortiterplate Reader” (Analytical Biochemistry, 204, pp 190-197, 1992 by Laure. J. Reynolds. Lori L. Hughes and Edward A. Dennis: the disclosure of which is incorporated herein for reference.
Bovine Serum Albumin (fatty acid free) (1 g/L) (Sigma A-7030)
pH 7.5 (adjusted with NaOH)
pH 4.5 (adjusted with acetic acid)
1 mg of sPLA2 is dissolved in 1 ml of an enzyme buffer. Thereafter, the solution is maintained at 4° C.
In the assay, 5 μl of the solution is diluted with 1995 μl of the reaction buffer to be used.
198 mg of 5,5′-dithiobis-2-[…] (manufactured by Wako Pure Chemicals) is dissolved in 100 ml of H2O
100 mg of racemic 1,2-bis(heptanoylthio)-1,2-dideoxy-sn-glycero-3-phospholylcholine is dissolved in 1 ml of chloroform.
624.9 mg of Triton-X 100 is dissolved in the reaction buffer.
Enzyme Reaction: for 1 plate of Microtiterplate
1) 0.106 ml of the substrate solution is put in a centrifugal tube, and nitrogen gas is jetted to remove the solvent. 0.54 ml of Triton-X 100 is added thereto, the mixture is stirred, thereafter it is sonified in a bath type sonification to dissolve. To the resulting product are added 17.8 m1l of the reaction buffer and 0.46 ml of DTNB, and 0.18 ml each of the admixture is poured to wells of the 96 well microtiterplate.
2) 10 μl of a test compound (or solvent blank) are added in accordance with alignment of plates which has been previously set.
3) Incubation is effected at 40° C. for 15 minutes.
4) 20 μl of an enzyme solution (sPLA2) which has been previously diluted (50 ng/well) are added to start reaction (40° C., 30 minutes).
5) Changes in absorbancy for 30 minutes are measured by a plate reader, and inhibition activity was calculated (OD: 405 nm).
6) IC50 was determined by plotting log concentration with respect to inhibition values within 10% to 90% inhibiting range.

IC50 [1] [nM] | melting point | Compound
248 | 210 to 212 °C | CCc1c(C(=O)C(N)=O)c2c(OCC(=O)OC)ccnn2c1Cc1ccccc1 [Compound I-1, Methyl (5-aminooxalyl-7-benzyl-6-ethylpyrrolo[1,2-b]pyridazine-4-yloxy)acetate]
9 | – | CCc1c(C(=O)C(N)=O)c2c(OCC(=O)O)ccnn2c1Cc1ccccc1 [Compound I-2, (5-aminooxalyl-7-benzyl-6-ethylpyrrolo[1,2-b]pyridazine-4-yloxy)acetic acid]
13 | – | CCc1c(C(=O)C(N)=O)c2c(OCC(=O)O)ccnn2c1Cc1ccccc1 [Compound I-3, Sodium (5-aminooxalyl-7-benzyl-6-ethylpyrrolo[1,2-b]pyridazine-4-yloxy)acetate]
150 | 225 to 226 °C | CCc1c(C(=O)C(N)=O)c2c(OCC(=O)OC)cc(C)nn2c1Cc1ccccc1 [Compound I-4, Methyl (5-aminooxalyl-7-benzyl-6-ethyl-2-methylpyrrolo[1,2-b]pyridazine-4-yloxy)acetate]
11 | – | CCc1c(C(=O)C(N)=O)c2c(OCC(=O)O)cc(C)nn2c1Cc1ccccc1 [Compound I-5, (5-aminooxalyl-7-benzyl-6-ethyl-2-methylpyrrolo[1,2-b]pyridazine-4-yloxy)acetic acid]
238 | 185 to 186 °C | CCc1c(C(=O)C(N)=O)c2c(OCC(=O)OC)cc(COc3ccccc3)nn2c1Cc1ccccc1 [Compound I-6, Methyl (5-aminooxalyl-7-benzyl-6-ethyl-2-phenoxymethylpyrrolo[1,2-b]pyridazine-4-yloxy)acetate]
223 | 178 to 179 °C | CCc1c(C(=O)C(N)=O)c2c(OCC(=O)OC)cc(COc3ccc(F)cc3)nn2c1Cc1ccccc1 [Compound I-7]
184 | 183 to 185 °C | CCc1cc(OCC(=O)OC)c2c(C(=O)C(N)=O)c(CC)c(Cc3ccccc3)n2n1 [Compound I-8]
165 | 204 to 206 °C | CCCc1cc(OCC(=O)OC)c2c(C(=O)C(N)=O)c(CC)c(Cc3ccccc3)n2n1 [Compound I-9]
296 | 174 to 175 °C | CCc1c(C(=O)C(N)=O)c2c(OCC(=O)OC)cc(C(C)C)nn2c1Cc1ccccc1 [Compound I-10]
67 | 236 to 239 °C | CCc1c(C(=O)C(N)=O)c2c(OCC(=O)OC)cc(-c3ccccc3)nn2c1Cc1ccccc1 [Compound I-11]
745 | 252 to 254 °C | CCc1c(C(=O)C(N)=O)c2c(OCC(=O)OC)cc(C)nn2c1Cc1ccc(F)cc1 [Compound I-12]
238 | 253 to 255 °C | CCc1c(C(=O)C(N)=O)c2c(OCC(=O)OC)cc(-c3ccccc3)nn2c1Cc1ccc(F)cc1 [Compound I-13]
883 | 200 to 202 °C | CCc1c(C(=O)C(N)=O)c2c(OCC(=O)OC)cc(C(F)(F)F)nn2c1Cc1ccc(F)cc1 [Compound I-14]
97 | 244 to 246 °C | CCc1c(C(=O)C(N)=O)c2c(OCC(=O)OC)cc(-c3ccccc3)nn2c1Cc1ccccc1F [Compound I-15]
12 | 271 to 272 °C (dec.) | Cc1cc(OCC(=O)O)c2c(C(=O)C(N)=O)c(C)c(Cc3ccccc3)n2n1 [Compound I-16]
7 | 253 to 254 °C (dec.) | Cc1c(C(=O)C(N)=O)c2c(OCC(=O)O)cc(-c3ccccc3)nn2c1Cc1ccccc1 [Compound I-17]
10 | 223 to 225 °C (dec.) | CCc1cc(OCC(=O)O)c2c(C(=O)C(N)=O)c(CC)c(Cc3ccccc3)n2n1 [Compound I-18]
10 | 231 to 233 °C (dec.) | CCCc1cc(OCC(=O)O)c2c(C(=O)C(N)=O)c(CC)c(Cc3ccccc3)n2n1 [Compound I-19]
19 | 234 to 236 °C (dec.) | CCc1c(C(=O)C(N)=O)c2c(OCC(=O)O)cc(C(C)C)nn2c1Cc1ccccc1 [Compound I-20]
6 | 244 to 246 °C (dec.) | CCc1c(C(=O)C(N)=O)c2c(OCC(=O)O)cc(-c3ccccc3)nn2c1Cc1ccccc1 [Compound I-21]
22 | 238 to 240 °C | CCc1c(C(=O)C(N)=O)c2c(OCC(=O)O)cc(C)nn2c1Cc1ccc(F)cc1 [Compound I-22]

IC50 [1] [nM] | melting point | Compound
7 | 250 to 252 °C | CCc1c(C(=O)C(N)=O)c2c(OCC(=O)O)cc(-c3ccccc3)nn2c1Cc1ccc(F)cc1 [Compound I-23]
21 | 248 to 250 °C | CCc1c(C(=O)C(N)=O)c2c(OCC(=O)O)cc(C(F)(F)F)nn2c1Cc1ccc(F)cc1 [Compound I-24]
6 | 252 to 254 °C | CCc1c(C(=O)C(N)=O)c2c(OCC(=O)O)cc(-c3ccccc3)nn2c1Cc1ccccc1F [Compound I-25]
177 | 163 to 165 °C | COC(=O)COc1cc(C)nn2c(Cc3ccccc3)c(C)c(C(=O)C(N)=O)c12 [Compound I-26]
126 | 189 to 192 °C | CCc1c(C(=O)C(N)=O)c2c(OCC(=O)OC)cc(CSc3ccccc3)nn2c1Cc1ccccc1 [Compound I-27]
1520 | 185 to 186 °C | CCc1c(C(=O)C(N)=O)c2c(OCC(=O)OCc3ccccc3)cc(CN3CCCC3)nn2c1Cc1ccccc1 [Compound I-29]
4520 | 183 to 184 °C | CCc1c(C(=O)C(N)=O)c2c(OCC(=O)OCc3ccccc3)cc(CN3CCOCC3)nn2c1Cc1ccccc1 [Compound I-30]
15600 | 202 to 203 °C | CCc1c(C(=O)C(N)=O)c2c(OCC(=O)OCc3ccccc3)cc(CN3CCN(C)CC3)nn2c1Cc1ccccc1 [Compound I-31]
239 | 274 to 276 °C (dec.) | CCc1c(C(=O)C(N)=O)c2c(OCC(=O)OC)cc(-c3ccc(F)cc3)nn2c1Cc1ccc(F)cc1 [Compound I-32]
72 | 249 to 253 °C (dec.) | CCc1c(C(=O)C(N)=O)c2c(OCC(=O)OC)cc(-c3ccc(F)cc3)nn2c1Cc1ccccc1 [Compound I-33]
58 | 215 to 217 °C (dec.) | CCc1c(C(=O)C(N)=O)c2c(OCC(=O)OC)cc(-c3ccc(OC)cc3)nn2c1Cc1ccccc1 [Compound I-34]
111 | 187 to 189 °C | CCc1c(C(=O)C(N)=O)c2c(OCC(=O)OC)cc(C)nn2c1Cc1ccccc1-c1ccccc1 [Compound I-35]
102 | 201 to 202 °C | CCc1c(C(=O)C(N)=O)c2c(OCC(=O)OC)cc(C)nn2c1Cc1cccc(Oc2ccccc2)c1 [Compound I-36]
212 | 207 to 209 °C (dec.) | CCc1c(C(=O)C(N)=O)c2c(OCC(=O)OC)cc(C3CCCCC3)nn2c1Cc1ccccc1 [Compound I-37]
227 | 160 to 162 °C (dec.) | CCc1c(C(=O)C(N)=O)c2c(OCC(=O)OC)cc(C3CCCC3)nn2c1Cc1ccccc1 [Compound I-38]
79 | 245 to 247 °C (dec.) | CCc1c(C(=O)C(N)=O)c2c(OCC(=O)OC)cc(-c3ccc4c(c3)OCO4)nn2c1Cc1ccccc1 [Compound I-39]
99 | 194 to 196 °C | CCc1cc(OCC(=O)OC)c2c(C(=O)C(N)=O)c(C)c(Cc3ccccc3)n2n1 [Compound I-40]
64 | 210 to 211 °C | CCCc1cc(OCC(=O)OC)c2c(C(=O)C(N)=O)c(C)c(Cc3ccccc3)n2n1 [Compound I-41]
26 | 204 to 206 °C | COC(=O)COc1cc(Cc2ccccc2)nn2c(Cc3ccccc3)c(C)c(C(=O)C(N)=O)c12 [Compound I-42]
154 | 210 to 211 °C | COC(=O)COc1cc(CSC)nn2c(Cc3ccccc3)c(C)c(C(=O)C(N)=O)c12 [Compound I-43]
315 | 228 to 229 °C (dec.) | COCc1cc(OCC(=O)OC)c2c(C(=O)C(N)=O)c(C)c(Cc3ccccc3)n2n1 [Compound I-44]
